Experimental data from PubChem BioAssay AID1259407 (Chemical Carcinogenesis Research Information System (CCRIS), 2018).
Activity calls are given as the source filed them. How the calls were made is not given here.

Test system: CCRIS mutagenicity, Ames/micronucleus/aberration tests
Test: CCRIS mutagenicity studies
[1] = Test System: AMES SALMONELLA TYPHIMURIUM, Strain/Indicator: TA98, Metabolic Activation: NONE, Method: PREINCUBATION
[2] = Test System: AMES SALMONELLA TYPHIMURIUM, Strain/Indicator: TA100, Metabolic Activation: NONE, Method: PREINCUBATION
[3] = Test System: AMES SALMONELLA TYPHIMURIUM, Strain/Indicator: TA100, Metabolic Activation: RAT, LIVER, S-9, Method: PREINCUBATION
[4] = Test System: AMES SALMONELLA TYPHIMURIUM, Strain/Indicator: TA100, Metabolic Activation: NONE, Method: STANDARD PLATE
[5] = Test System: AMES SALMONELLA TYPHIMURIUM, Strain/Indicator: TA100, Metabolic Activation: RAT, LIVER, S-9, AROCLOR 1254, Method: STANDARD PLATE

C=CC[N+](C)(C)CC=C
mutagenic call [1]: inactive; negative
mutagenic call (Test System: AMES SALMONELLA TYPHIMURIUM, Strain/Indicator: TA98, Metabolic Activation: RAT LIVER S-9, PHENOBARBITAL AND BETA-NAPHTHOFLAVONE, Method: PREINCUBATION): inactive; negative
mutagenic call [2]: inactive; negative
mutagenic call (Test System: AMES SALMONELLA TYPHIMURIUM, Strain/Indicator: TA100, Metabolic Activation: RAT LIVER S-9, PHENOBARBITAL AND BETA-NAPHTHOFLAVONE, Method: PREINCUBATION): inactive; negative
mutagenic call (Test System: AMES SALMONELLA TYPHIMURIUM, Strain/Indicator: TA1535, Metabolic Activation: NONE, Method: PREINCUBATION): inactive; negative
mutagenic call (Test System: AMES SALMONELLA TYPHIMURIUM, Strain/Indicator: TA1535, Metabolic Activation: RAT LIVER S-9, PHENOBARBITAL AND BETA-NAPHTHOFLAVONE, Method: PREINCUBATION): inactive; negative
mutagenic call (Test System: AMES SALMONELLA TYPHIMURIUM, Strain/Indicator: TA1537, Metabolic Activation: NONE, Method: PREINCUBATION): inactive; negative
mutagenic call (Test System: AMES SALMONELLA TYPHIMURIUM, Strain/Indicator: TA1537, Metabolic Activation: RAT LIVER S-9, PHENOBARBITAL AND BETA-NAPHTHOFLAVONE, Method: PREINCUBATION): inactive; negative
mutagenic call (Test System: E.COLI, Strain/Indicator: WP2UVRA/PKM101, Metabolic Activation: NONE, Method: PREINCUBATION): inactive; negative
mutagenic call (Test System: E.COLI, Strain/Indicator: WP2UVRA/PKM101, Metabolic Activation: RAT LIVER S-9, PHENOBARBITAL AND BETA-NAPHTHOFLAVONE, Method: PREINCUBATION): inactive; negative

CC(O)CN(C)N=O (centres undefined)
mutagenic call (Test System: AMES SALMONELLA TYPHIMURIUM, Strain/Indicator: TA100, Metabolic Activation: HAMSTER, LIVER, S-9, 3-METHYLCHOLANTHRENE, Method: PREINCUBATION): active; positive
mutagenic call (Test System: AMES SALMONELLA TYPHIMURIUM, Strain/Indicator: TA100, Metabolic Activation: HAMSTER, LIVER, S-9, PHENOBARBITAL, Method: PREINCUBATION): active; positive
mutagenic call (Test System: AMES SALMONELLA TYPHIMURIUM, Strain/Indicator: TA100, Metabolic Activation: HAMSTER, LIVER, S-9, Method: PREINCUBATION): active; positive
mutagenic call (Test System: AMES SALMONELLA TYPHIMURIUM, Strain/Indicator: TA100, Metabolic Activation: HUMAN, LIVER, S-9, Method: PREINCUBATION): active; positive
mutagenic call (Test System: AMES SALMONELLA TYPHIMURIUM, Strain/Indicator: TA100, Metabolic Activation: MONKEY, LIVER, S-9, Method: PREINCUBATION): active; positive
mutagenic call (Test System: AMES SALMONELLA TYPHIMURIUM, Strain/Indicator: TA100, Metabolic Activation: MOUSE, LIVER, S-9, 3-METHYLCHOLANTHRENE, Method: PREINCUBATION): active; positive
mutagenic call (Test System: AMES SALMONELLA TYPHIMURIUM, Strain/Indicator: TA100, Metabolic Activation: MOUSE, LIVER, S-9, PHENOBARBITAL, Method: PREINCUBATION): active; positive
mutagenic call (Test System: AMES SALMONELLA TYPHIMURIUM, Strain/Indicator: TA100, Metabolic Activation: MOUSE, LIVER, S-9, Method: PREINCUBATION): active; positive
mutagenic call [2]: inactive; negative
mutagenic call (Test System: AMES SALMONELLA TYPHIMURIUM, Strain/Indicator: TA100, Metabolic Activation: RABBIT, LIVER, S-9, Method: PREINCUBATION): active; positive
mutagenic call (Test System: AMES SALMONELLA TYPHIMURIUM, Strain/Indicator: TA100, Metabolic Activation: RAT, LIVER, CYTOSOL, PCB, Method: PREINCUBATION): inactive; negative
mutagenic call (Test System: AMES SALMONELLA TYPHIMURIUM, Strain/Indicator: TA100, Metabolic Activation: RAT, LIVER, MICROSOMES AND CYTOSOL, PCB, Method: PREINCUBATION): active; positive
mutagenic call (Test System: AMES SALMONELLA TYPHIMURIUM, Strain/Indicator: TA100, Metabolic Activation: RAT, LIVER, MICROSOMES AND G6PDH, PCB, Method: PREINCUBATION): active; positive
mutagenic call (Test System: AMES SALMONELLA TYPHIMURIUM, Strain/Indicator: TA100, Metabolic Activation: RAT, LIVER, MICROSOMES, PCB, Method: PREINCUBATION): active; positive
mutagenic call (Test System: AMES SALMONELLA TYPHIMURIUM, Strain/Indicator: TA100, Metabolic Activation: RAT, LIVER, S-9 (HEATED), PCB, Method: PREINCUBATION): inactive; negative
mutagenic call (Test System: AMES SALMONELLA TYPHIMURIUM, Strain/Indicator: TA100, Metabolic Activation: RAT, LIVER, S-9, 3-METHYLCHOLANTHRENE, Method: PREINCUBATION): active; positive
mutagenic call (Test System: AMES SALMONELLA TYPHIMURIUM, Strain/Indicator: TA100, Metabolic Activation: RAT, LIVER, S-9, PCB, Method: PREINCUBATION): active; positive
mutagenic call (Test System: AMES SALMONELLA TYPHIMURIUM, Strain/Indicator: TA100, Metabolic Activation: RAT, LIVER, S-9, PHENOBARBITAL, Method: PREINCUBATION): active; positive
mutagenic call [3]: active; positive
mutagenic call (Test System: AMES SALMONELLA TYPHIMURIUM, Strain/Indicator: TA100, Metabolic Activation: RAT, LIVER, S-9 WITHOUT NADP+, PCB, Method: PREINCUBATION): inactive; negative
mutagenic call (Test System: AMES SALMONELLA TYPHIMURIUM, Strain/Indicator: TA100, Metabolic Activation: TOBACCO CELLS, Method: PREINCUBATION): inactive; negative
mutagenic call (Test System: AMES SALMONELLA TYPHIMURIUM, Strain/Indicator: TA100, Method: PREINCUBATION): active; positive
mutagenic call (Test System: CHINESE HAMSTER V-79, Strain/Indicator: V-79/OUABAIN, Metabolic Activation: HAMSTER, HEPATOCYTES, Method: CELL-MEDIATED): active; positive

Cc1c([N+](=O)[O-])c2ccccc2c2ccc3ccccc3c12
mutagenic call [1]: inactive; negative
mutagenic call (Test System: AMES SALMONELLA TYPHIMURIUM, Strain/Indicator: TA98, Metabolic Activation: RAT, LIVER, S-9, Method: PREINCUBATION): active; positive
mutagenic call [2]: inactive; negative
mutagenic call [4]: inactive; negative
mutagenic call [5]: active; positive
mutagenic call [3]: active; positive

CC(=O)Oc1c2ccccc2c2ccc3cccc4ccc1c2c43
mutagenic call (Test System: UDS RODENT PRIMARY CELLS, Strain/Indicator: THY INCORP (NON-S-PHASE), Metabolic Activation: NONE, Method: AUTORADIOGRAPHY): active; positive

C=CCC1OC(=O)C=CC1O (centres undefined)
mutagenic call (Test System: AMES SALMONELLA TYPHIMURIUM, Strain/Indicator: TA98, Metabolic Activation: NONE, Method: STANDARD PLATE): inactive; negative
mutagenic call (Test System: AMES SALMONELLA TYPHIMURIUM, Strain/Indicator: TA98, Metabolic Activation: RAT, LIVER, S-9, AROCLOR 1254, Method: STANDARD PLATE): inactive; negative
mutagenic call [4]: inactive; negative
mutagenic call [5]: inactive; negative
